Reference: the supplement of paper PMC10307832

Legend:
Experiment in all cases: relative viability (nuclei count vs DMSO), 5 days (fraction); higher = more cells survive
Irinotecan + Olaparib = compound: CCc1c2c(nc3ccc(OC(=O)N4CCC(N5CCCCC5)CC4)cc13)-c1cc3c(c(=O)n1C2)COC(=O)[C@]3(O)CC [Irinotecan] + O=C(c1cc(Cc2n[nH]c(=O)c3ccccc23)ccc1F)N1CCN(C(=O)C2CC2)CC1 [Olaparib] (partner 8 µM)
Summary of the method: (§1)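 Relative viability is defined as nuclei in treated wells over nuclei in vehicle wells. Duplicate plates were run and medians reported. Lung cancer cell lines in 1536-well plates were dosed by pin tool one day after seeding, with one drug or with a fixed anchor-drug dose plus five library-drug doses (not always all listed) in √10 steps, and nuclei were counted after 5 days.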

Irinotecan + Pemetrexed = compound: CCc1c2c(nc3ccc(OC(=O)N4CCC(N5CCCCC5)CC4)cc13)-c1cc3c(c(=O)n1C2)COC(=O)[C@]3(O)CC [Irinotecan] + Nc1nc2[nH]cc(CCc3ccc(C(=O)N[C@@H](CCC(=O)O)C(=O)O)cc3)c2c(=O)[nH]1 [Pemetrexed] (partner 0.2 µM)
Summary of the method: as §1

RU-SKI 43 + Olaparib = compound: CC[C@@H](C)CNCC(=O)N1CCC2=C([C@@H]1COC3=CC=CC(=C3)C)C=CS2 [RU-SKI 43] + O=C(c1cc(Cc2n[nH]c(=O)c3ccccc23)ccc1F)N1CCN(C(=O)C2CC2)CC1 [Olaparib] (partner 8 µM)
Summary of the method: as §1

Irinotecan + Phenformin = compound: CCc1c2c(nc3ccc(OC(=O)N4CCC(N5CCCCC5)CC4)cc13)-c1cc3c(c(=O)n1C2)COC(=O)[C@]3(O)CC [Irinotecan] + N=C(N)NC(=N)NCCc1ccccc1 [Phenformin] (partner 250 µM)
Summary of the method: as §1

## SK-LU-1
Irinotecan + Olaparib; first compound 0.6325 µM
  relative viability: 0.312
Irinotecan + Olaparib; first compound 2 µM
  relative viability: 0.265
Irinotecan + Olaparib; first compound 6.325 µM
  relative viability: 0.29
Irinotecan + Olaparib; first compound 20 µM
  relative viability: 0.218
Irinotecan + Pemetrexed; first compound 0.6325 µM
  relative viability: 0.521
Irinotecan + Pemetrexed; first compound 2 µM
  relative viability: 0.455
Irinotecan + Pemetrexed; first compound 6.325 µM
  relative viability: 0.334
Irinotecan + Pemetrexed; first compound 20 µM
  relative viability: 0.276
RU-SKI 43 + Olaparib; first compound 0.1 µM
  relative viability: 0.449
RU-SKI 43 + Olaparib; first compound 0.3162 µM
  relative viability: 0.397
RU-SKI 43 + Olaparib; first compound 1 µM
  relative viability: 0.531
RU-SKI 43 + Olaparib; first compound 3.162 µM
  relative viability: 0.46
RU-SKI 43 + Olaparib; first compound 10 µM
  relative viability: 0.44
Irinotecan + Phenformin; first compound 0.6325 µM
  relative viability: 0.429
Irinotecan + Phenformin; first compound 2 µM
  relative viability: 0.35
Irinotecan + Phenformin; first compound 6.325 µM
  relative viability: 0.276
Irinotecan + Phenformin; first compound 20 µM
  relative viability: 0.283

## NCI-H1395
Irinotecan + Olaparib; first compound 2 µM
  relative viability: 0.458
Irinotecan + Olaparib; first compound 6.325 µM
  relative viability: 0.455
Irinotecan + Olaparib; first compound 20 µM
  relative viability: 0.31
Irinotecan + Pemetrexed; first compound 2 µM
  relative viability: 0.754
Irinotecan + Pemetrexed; first compound 6.325 µM
  relative viability: 0.518
Irinotecan + Pemetrexed; first compound 20 µM
  relative viability: 0.246
RU-SKI 43 + Olaparib; first compound 0.1 µM
  relative viability: 0.452
RU-SKI 43 + Olaparib; first compound 0.3162 µM
  relative viability: 0.417
RU-SKI 43 + Olaparib; first compound 1 µM
  relative viability: 0.451
RU-SKI 43 + Olaparib; first compound 3.162 µM
  relative viability: 0.477
RU-SKI 43 + Olaparib; first compound 10 µM
  relative viability: 0.46
Irinotecan + Phenformin; first compound 0.6325 µM
  relative viability: 0.403
Irinotecan + Phenformin; first compound 2 µM
  relative viability: 0.493
Irinotecan + Phenformin; first compound 6.325 µM
  relative viability: 0.389
Irinotecan + Phenformin; first compound 20 µM
  relative viability: 0.399

## COR-L23
Irinotecan + Olaparib; first compound 0.6325 µM
  relative viability: 0.162
Irinotecan + Olaparib; first compound 2 µM
  relative viability: 0.215
Irinotecan + Olaparib; first compound 6.325 µM
  relative viability: 0.191
Irinotecan + Olaparib; first compound 20 µM
  relative viability: 0.0964
Irinotecan + Pemetrexed; first compound 0.6325 µM
  relative viability: 0.181
Irinotecan + Pemetrexed; first compound 2 µM
  relative viability: 0.178
Irinotecan + Pemetrexed; first compound 6.325 µM
  relative viability: 0.204
Irinotecan + Pemetrexed; first compound 20 µM
  relative viability: 0.165
RU-SKI 43 + Olaparib; first compound 0.1 µM
  relative viability: 0.333
RU-SKI 43 + Olaparib; first compound 0.3162 µM
  relative viability: 0.403
RU-SKI 43 + Olaparib; first compound 1 µM
  relative viability: 0.377
RU-SKI 43 + Olaparib; first compound 3.162 µM
  relative viability: 0.325
RU-SKI 43 + Olaparib; first compound 10 µM
  relative viability: 0.359
Irinotecan + Phenformin; first compound 0.6325 µM
  relative viability: 0.31
Irinotecan + Phenformin; first compound 2 µM
  relative viability: 0.394
Irinotecan + Phenformin; first compound 6.325 µM
  relative viability: 0.188
Irinotecan + Phenformin; first compound 20 µM
  relative viability: 0.108

## NCI-H2126
Irinotecan + Olaparib; first compound 0.6325 µM
  relative viability: 0.388
Irinotecan + Olaparib; first compound 2 µM
  relative viability: 0.387
Irinotecan + Olaparib; first compound 6.325 µM
  relative viability: 0.303
Irinotecan + Olaparib; first compound 20 µM
  relative viability: 0.27
Irinotecan + Pemetrexed; first compound 0.6325 µM
  relative viability: 0.414
Irinotecan + Pemetrexed; first compound 2 µM
  relative viability: 0.606
Irinotecan + Pemetrexed; first compound 6.325 µM
  relative viability: 0.456
Irinotecan + Pemetrexed; first compound 20 µM
  relative viability: 0.383
RU-SKI 43 + Olaparib; first compound 0.1 µM
  relative viability: 0.903
RU-SKI 43 + Olaparib; first compound 0.3162 µM
  relative viability: 1.07
RU-SKI 43 + Olaparib; first compound 1 µM
  relative viability: 0.936
RU-SKI 43 + Olaparib; first compound 3.162 µM
  relative viability: 0.845
RU-SKI 43 + Olaparib; first compound 10 µM
  relative viability: 0.865
Irinotecan + Phenformin; first compound 2 µM
  relative viability: 0.53
Irinotecan + Phenformin; first compound 6.325 µM
  relative viability: 0.355
Irinotecan + Phenformin; first compound 20 µM
  relative viability: 0.285

## EPLC-272H
Irinotecan + Olaparib; first compound 0.6325 µM
  relative viability: 0.508
Irinotecan + Olaparib; first compound 2 µM
  relative viability: 0.547
Irinotecan + Olaparib; first compound 6.325 µM
  relative viability: 0.307
Irinotecan + Olaparib; first compound 20 µM
  relative viability: 0.218
Irinotecan + Pemetrexed; first compound 0.6325 µM
  relative viability: 0.351
Irinotecan + Pemetrexed; first compound 2 µM
  relative viability: 0.321
Irinotecan + Pemetrexed; first compound 6.325 µM
  relative viability: 0.292
Irinotecan + Pemetrexed; first compound 20 µM
  relative viability: 0.268
RU-SKI 43 + Olaparib; first compound 0.1 µM
  relative viability: 0.597
RU-SKI 43 + Olaparib; first compound 0.3162 µM
  relative viability: 0.648
RU-SKI 43 + Olaparib; first compound 1 µM
  relative viability: 0.813
RU-SKI 43 + Olaparib; first compound 3.162 µM
  relative viability: 0.697
RU-SKI 43 + Olaparib; first compound 10 µM
  relative viability: 0.64
Irinotecan + Phenformin; first compound 0.6325 µM
  relative viability: 0.25
Irinotecan + Phenformin; first compound 2 µM
  relative viability: 0.244
Irinotecan + Phenformin; first compound 6.325 µM
  relative viability: 0.241
Irinotecan + Phenformin; first compound 20 µM
  relative viability: 0.294

## NCI-H1793
Irinotecan + Olaparib; first compound 2 µM
  relative viability: 0.528
Irinotecan + Olaparib; first compound 6.325 µM
  relative viability: 0.173
Irinotecan + Olaparib; first compound 20 µM
  relative viability: 0.209
Irinotecan + Pemetrexed; first compound 2 µM
  relative viability: 0.699
Irinotecan + Pemetrexed; first compound 6.325 µM
  relative viability: 0.395
Irinotecan + Pemetrexed; first compound 20 µM
  relative viability: 0.253
RU-SKI 43 + Olaparib; first compound 0.1 µM
  relative viability: 0.744
RU-SKI 43 + Olaparib; first compound 0.3162 µM
  relative viability: 0.558
RU-SKI 43 + Olaparib; first compound 1 µM
  relative viability: 1.02
RU-SKI 43 + Olaparib; first compound 3.162 µM
  relative viability: 0.833
RU-SKI 43 + Olaparib; first compound 10 µM
  relative viability: 0.719
Irinotecan + Phenformin; first compound 2 µM
  relative viability: 0.347
Irinotecan + Phenformin; first compound 6.325 µM
  relative viability: 0.263
Irinotecan + Phenformin; first compound 20 µM
  relative viability: 0.185

## SW 900
Irinotecan + Olaparib; first compound 2 µM
  relative viability: 0.474
Irinotecan + Olaparib; first compound 6.325 µM
  relative viability: 0.334
Irinotecan + Olaparib; first compound 20 µM
  relative viability: 0.384
Irinotecan + Pemetrexed; first compound 2 µM
  relative viability: 0.538
Irinotecan + Pemetrexed; first compound 6.325 µM
  relative viability: 0.36
Irinotecan + Pemetrexed; first compound 20 µM
  relative viability: 0.406
RU-SKI 43 + Olaparib; first compound 0.1 µM
  relative viability: 0.94
RU-SKI 43 + Olaparib; first compound 0.3162 µM
  relative viability: 0.952
RU-SKI 43 + Olaparib; first compound 1 µM
  relative viability: 0.821
RU-SKI 43 + Olaparib; first compound 3.162 µM
  relative viability: 0.814
RU-SKI 43 + Olaparib; first compound 10 µM
  relative viability: 0.806
Irinotecan + Phenformin; first compound 0.6325 µM
  relative viability: 0.425
Irinotecan + Phenformin; first compound 2 µM
  relative viability: 0.664
Irinotecan + Phenformin; first compound 6.325 µM
  relative viability: 0.447
Irinotecan + Phenformin; first compound 20 µM
  relative viability: 0.37

## NCI-H2009
Irinotecan + Olaparib; first compound 0.6325 µM
  relative viability: 0.508
Irinotecan + Olaparib; first compound 2 µM
  relative viability: 0.287
Irinotecan + Olaparib; first compound 6.325 µM
  relative viability: 0.194
Irinotecan + Olaparib; first compound 20 µM
  relative viability: 0.128
Irinotecan + Pemetrexed; first compound 0.6325 µM
  relative viability: 0.783
Irinotecan + Pemetrexed; first compound 2 µM
  relative viability: 0.439
Irinotecan + Pemetrexed; first compound 6.325 µM
  relative viability: 0.211
Irinotecan + Pemetrexed; first compound 20 µM
  relative viability: 0.121
RU-SKI 43 + Olaparib; first compound 0.1 µM
  relative viability: 0.659
RU-SKI 43 + Olaparib; first compound 0.3162 µM
  relative viability: 0.803
RU-SKI 43 + Olaparib; first compound 1 µM
  relative viability: 0.735
RU-SKI 43 + Olaparib; first compound 3.162 µM
  relative viability: 0.698
RU-SKI 43 + Olaparib; first compound 10 µM
  relative viability: 0.584
Irinotecan + Phenformin; first compound 0.6325 µM
  relative viability: 0.421
Irinotecan + Phenformin; first compound 2 µM
  relative viability: 0.411
Irinotecan + Phenformin; first compound 6.325 µM
  relative viability: 0.232
Irinotecan + Phenformin; first compound 20 µM
  relative viability: 0.167

## NCI-H2347
Irinotecan + Olaparib; first compound 0.6325 µM
  relative viability: 0.471
Irinotecan + Olaparib; first compound 2 µM
  relative viability: 0.491
Irinotecan + Olaparib; first compound 6.325 µM
  relative viability: 0.379
Irinotecan + Olaparib; first compound 20 µM
  relative viability: 0.555
Irinotecan + Pemetrexed; first compound 0.6325 µM
  relative viability: 0.429
Irinotecan + Pemetrexed; first compound 2 µM
  relative viability: 0.427
Irinotecan + Pemetrexed; first compound 6.325 µM
  relative viability: 0.342
Irinotecan + Pemetrexed; first compound 20 µM
  relative viability: 0.427
RU-SKI 43 + Olaparib; first compound 0.1 µM
  relative viability: 0.547
RU-SKI 43 + Olaparib; first compound 0.3162 µM
  relative viability: 0.499
RU-SKI 43 + Olaparib; first compound 1 µM
  relative viability: 0.553
RU-SKI 43 + Olaparib; first compound 3.162 µM
  relative viability: 0.504
RU-SKI 43 + Olaparib; first compound 10 µM
  relative viability: 0.569
Irinotecan + Phenformin; first compound 0.6325 µM
  relative viability: 0.284
Irinotecan + Phenformin; first compound 2 µM
  relative viability: 0.263
Irinotecan + Phenformin; first compound 6.325 µM
  relative viability: 0.298
Irinotecan + Phenformin; first compound 20 µM
  relative viability: 0.246

## LU99A
Irinotecan + Olaparib; first compound 0.6325 µM
  relative viability: 0.126
Irinotecan + Olaparib; first compound 2 µM
  relative viability: 0.126
Irinotecan + Olaparib; first compound 6.325 µM
  relative viability: 0.119
Irinotecan + Olaparib; first compound 20 µM
  relative viability: 0.15
Irinotecan + Pemetrexed; first compound 0.6325 µM
  relative viability: 0.162
Irinotecan + Pemetrexed; first compound 2 µM
  relative viability: 0.126
Irinotecan + Pemetrexed; first compound 6.325 µM
  relative viability: 0.155
Irinotecan + Pemetrexed; first compound 20 µM
  relative viability: 0.109
RU-SKI 43 + Olaparib; first compound 0.1 µM
  relative viability: 0.261
RU-SKI 43 + Olaparib; first compound 0.3162 µM
  relative viability: 0.276
RU-SKI 43 + Olaparib; first compound 1 µM
  relative viability: 0.285
RU-SKI 43 + Olaparib; first compound 3.162 µM
  relative viability: 0.271
RU-SKI 43 + Olaparib; first compound 10 µM
  relative viability: 0.262
Irinotecan + Phenformin; first compound 0.6325 µM
  relative viability: 0.369
Irinotecan + Phenformin; first compound 2 µM
  relative viability: 0.37
Irinotecan + Phenformin; first compound 6.325 µM
  relative viability: 0.208
Irinotecan + Phenformin; first compound 20 µM
  relative viability: 0.301
